This is an account of results in patent US12303845B2, “Method for crystallization of active pharmaceutical ingredients” (Nanoform Finland Oyj, priority 2023, dated 2025).

This data set in a line: Permeability measurements (μFlux). Particulars: composition of the disclosure vs bulk ezetimibe, PAMPA membrane. The format is in vitro ADME. The protocol:
A μFlux instrument connected to the Rainbow instrument (Pion Inc UK Ltd, Forest Row, UK) was used to determine the passive permeability of API from different formulations. The suspensions were loaded to the donor chamber containing 10 mL of SGF (0.025 M HCl pH 1.6) and incubated for 15 min. Thereafter, the content of the donor chamber was converted to FaSSIF medium pH 6.5 by addition of 10 mL of FaSSIF concentrate media and stirring rate of 150 rpm. The receiver compartment contained 20 mL of PION acceptor buffer pH 7.4 with stirring rate of 150 rpm. The permeability was assessed across a gastrointestinal PAMPA membrane (Pion Inc UK Ltd, Forest Row, UK). The suspensions were loaded either at either 40 μg/mL for Ezetimibe or 30 μg/mL for Apalutamide using suspensions prepared at concentration of 5 mg/mL in 1 wt.-% PVPVA suspension vehicle. The temperature was set to 37° C. throughout the measurement. Incubation time was about 24 h. UV-Vis spectra were recorded at 30 s intervals at a wavelength of 293-320 nm using the Pion Rainbow Dynamic with either 10 mm tips for Ezetimibe or 5 mm tips for Apalutamide. API concentrations were calculated using second derivative to avoid interference of undissolved floating particles based on a standard curve (stock solution 5 mg/mL in ethanol). […]
In general terms: In PAMPA a lipid-coated filter parts donor from acceptor wells.

The structures appear in SMILES notation.

For `O=C1[C@H](CC[C@H](O)c2ccc(F)cc2)[C@@H](c2ccc(O)cc2)N1c1ccc(F)cc1` [Eze, ezetimibe], the “permeability versus bulk API” value is given as “significantly better”.
